Results published in PubChem BioAssay (NCI).
Where “and” joins values, the source holds several entries; their conditions need not be identical. Equal values may be shown once.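 In this assay, cells in 96-well plates receive the compound at five concentrations for 48 hours. Endpoints are linearly interpolated between the surrounding concentrations. Abbreviation: GI50, concentration required for 50% inhibition of growth. TGI marks complete inhibition of growth.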

Columns and labels:
Assay in all cases: inhibition of tumour cell growth, NCI panel, 48 h
DU-145 prostate = tested on: DU-145 prostate
EKVX NSCLC = tested on: EKVX NSCLC
HL-60(TB) leukemia = tested on: HL-60(TB) leukemia
HT29 colon = tested on: HT29 colon
MCF7 breast = tested on: MCF7 breast
NCI-H23 lung = tested on: NCI-H23 lung
OVCAR-5 ovarian = tested on: OVCAR-5 ovarian
PC-3 prostate = tested on: PC-3 prostate
SK-MEL-2 melanoma = tested on: SK-MEL-2 melanoma
UO-31 renal = tested on: UO-31 renal

SMILES	TGI (DU-145 prostate)	TGI (EKVX NSCLC)	TGI (HL-60(TB) leukemia)	TGI (HT29 colon)	TGI (MCF7 breast)	TGI (NCI-H23 lung)	TGI (OVCAR-5 ovarian)	TGI (PC-3 prostate)	TGI (SK-MEL-2 melanoma)	TGI (UO-31 renal)	GI50 (UO-31 renal)	GI50 (HL-60(TB) leukemia)	GI50 (OVCAR-5 ovarian)
Cc1ccc(S(=O)(=O)c2c(O)c3ccc(O)c(C)c3oc2=O)cc1	> 100 µM	> 100 µM	> 100 µM	> 100 µM	> 100 µM	> 100 µM	> 100 µM	> 100 µM	> 100 µM	> 100 µM	–	–	–
CCOC(=O)Cn1nnc2cc(Nc3c(C)[n+]([O-])c4cc(F)c(OCC)cc4[n+]3[O-])ccc21	> 100 µM	> 100 µM	> 100 µM	> 100 µM	> 100 µM	> 100 µM	> 100 µM	> 100 µM	> 100 µM	> 100 µM	–	–	–
O=P1(C(O)/C=C/c2ccccc2)N(Cc2ccccc2)[C@@H]2CCCC[C@H]2N1Cc1ccccc1 (stereo partly drawn)	45.3 µM	35.9 µM	5.88 µM	21.5 µM	15.1 µM	21.5 µM	31.5 µM	11.3 µM	6.17 µM	17.7 µM	–	–	–
COc1cccc(N2C(=O)CS(=O)(=O)C2c2cccc(Oc3ccccc3)c2)c1 (stereo not drawn)	> 100 µM	59.3 µM	> 100 µM	89.3 µM	10.6 µM	> 100 µM	> 100 µM	85.8 µM	38.8 µM	> 100 µM	–	–	–
C=C1CC(COc2ccc3c(C)c(C)c(=O)oc3c2C)(c2ccccc2)OC1=O (stereo not drawn)	6 µM	20.8 µM	5.54 µM	3.27 µM	3.56 µM	4.64 µM	25.1 µM	3.84 µM	3.91 µM	7 µM	–	–	–
CC1(C)N=C(N)N=C(N)N1c1cccc(OCc2cccc(N)c2)c1	> 100 µM	> 100 µM	47.5 µM	> 100 µM	> 100 µM	> 100 µM	> 100 µM	> 100 µM	> 100 µM	> 100 µM	–	–	–
O=C1N/N=C\c2ccc(cc2)OCc2cccc(n2)COc2ccc(cc2)/C=N\NC1=O	> 25 µM	> 25 µM	> 25 µM	> 25 µM	> 25 µM	> 25 µM	> 25 µM	> 25 µM	> 25 µM	> 25 µM	–	–	–
COC(=O)C1=C(C)NC(C)=C(C(=O)OC)C1c1cccc(N=O)c1	29.7 µM	36 µM	25.8 µM	34 µM	40.1 µM	36.2 µM	32.3 µM	31.7 µM	30.9 µM	21 µM	–	–	–
O=CN1CCN(C(=O)c2ccco2)C1=S	11.6 µM	41.3 µM	8.94 µM	26.2 µM	10.6 µM	40.4 µM	37.7 µM	23 µM	40.6 µM	13.8 µM	–	–	–
NC(N)=NS(=O)(=O)c1ccc(NC(=O)c2cccc3c(NNc4ccc(S(N)(=O)=O)cc4)c4ccccc4nc23)cc1	> 100 µM	> 100 µM	66.2 µM	> 100 µM	86.3 µM	> 100 µM	> 100 µM	> 100 µM	> 100 µM	> 100 µM	–	–	–
CC[N+]1(C)CCC(O)(c2ccc(C)cc2)C(C(=O)c2ccc(C)cc2)C1 (stereo not drawn)	> 100 µM	> 100 µM	> 100 µM	> 100 µM	36.9 µM	> 100 µM	> 100 µM	> 100 µM	> 100 µM	> 100 µM	–	–	–
Cc1nnc2n1-c1ccccc1N(Cc1ccccc1)CC2	> 100 µM	> 100 µM	60 µM	> 100 µM	> 100 µM	> 100 µM	> 100 µM	> 100 µM	> 100 µM	> 100 µM	–	–	–
COC(=O)C1=C(C(=O)OC)SC(=C2SC3=C(SC(=C4SCCS4)S3)S2)S1	> 100 µM	> 100 µM	> 100 µM	> 100 µM	> 100 µM	> 100 µM	> 100 µM	> 100 µM	> 100 µM	> 100 µM	–	–	–
NCCCCNCCCNC(=O)CNC(=O)CC(O)C(N)CCCC(NC(=O)C(CN)NC(=O)C(O)CNC(=O)CC(N)c1ccc(O)cc1)C(=O)O (stereo not drawn)	> 10 µM	> 10 µM	> 10 µM	> 10 µM	> 10 µM	> 10 µM	> 10 µM	> 10 µM	> 10 µM	> 10 µM	–	–	–
Cn1c2c(c3ccccc31)CCN1C(=O)C34CCCC3CC21S4 (stereo not drawn)	> 100 µM	> 100 µM	> 100 µM	> 100 µM	> 100 µM	> 100 µM	> 100 µM	> 100 µM	> 100 µM	> 100 µM	–	–	–
Cc1cc(S(=O)(=O)Nc2n[nH]c(Nc3ccccc3)n2)c(SCC(=O)O)cc1Cl	> 100 µM	> 100 µM	> 100 µM	> 100 µM	> 100 µM	> 100 µM	> 100 µM	> 100 µM	> 100 µM	> 100 µM	–	–	–
CCCCN1C(=O)CC2[C@@H]3CCc4cc(OC)ccc4C3CC[C@]2(C)C1=O (stereo partly drawn)	> 10 µM	> 10 µM	> 10 µM	> 10 µM	> 10 µM	> 10 µM	> 10 µM	> 10 µM	> 10 µM	> 10 µM	–	–	–
Clc1ccc(OCc2nnc(COc3ccc(OCc4nnc(COc5ccc(Cl)cc5Cl)o4)c(Cl)c3)o2)c(Cl)c1	> 100 µM	45.2 µM	57.3 µM	87.5 µM	> 100 µM	> 100 µM	> 100 µM	> 100 µM	> 100 µM	36.7 µM	–	–	–
COc1cc2c3cc1Oc1c(OC)c(OC)cc4c1C(Cc1ccc(O)c(c1)Oc1ccc(cc1)CC3N(C)CC2)CN(C)C4 (stereo not drawn)	60.8 µM	43.4 µM	6.11 µM	13.7 µM	34.2 µM	34.9 µM	44.8 µM	> 100 µM	33.6 µM	29.8 µM	–	–	–
COc1cc2[nH]c(=O)c3cc(-c4ccccc4)cc4c(Cl)nc(c1OC)c2c43	> 100 µM	64 µM	12.3 µM	> 60.7 µM	7.71 µM	47.5 µM	> 100 µM	> 100 µM	38.7 µM	> 65.1 µM	–	–	–

SMILES	TGI (DU-145 prostate)	TGI (EKVX NSCLC)	TGI (HL-60(TB) leukemia)	TGI (HT29 colon)	TGI (MCF7 breast)	TGI (NCI-H23 lung)	TGI (OVCAR-5 ovarian)	TGI (PC-3 prostate)	TGI (SK-MEL-2 melanoma)	TGI (UO-31 renal)	GI50 (UO-31 renal)	GI50 (HL-60(TB) leukemia)	GI50 (OVCAR-5 ovarian)
O=C1/C(=C/c2ccncc2)C(n2cccc2)c2c(Br)sc(Br)c21 (stereo not drawn)	12.9 µM	8.87 µM	4.68 µM	23.5 µM	12.7 µM	11.6 µM	29.2 µM	16.1 µM	6.56 µM	5.42 µM	–	–	–
Cn1nc2c(c1N)Cc1c(nn(C)c1N)-c1ccccc1-2	> 100 µM	> 100 µM	> 100 µM	> 100 µM	> 100 µM	> 100 µM	> 100 µM	> 100 µM	> 100 µM	> 100 µM	–	–	–
COCC#C[C@@]1(O)CCCCC1CC(OC)OC (stereo partly drawn)	> 100 µM	> 100 µM	> 100 µM	> 100 µM	> 100 µM	> 100 µM	> 100 µM	> 100 µM	> 100 µM	> 100 µM	–	–	–
COc1ccc(C2Oc3c(OC)cc(CCCO)cc3C2CO)cc1OC (stereo not drawn)	> 100 µM	> 100 µM	> 100 µM	> 100 µM	> 100 µM	> 100 µM	> 100 µM	> 100 µM	> 100 µM	> 100 µM	38.9 µM and > 100 µM	–	–
CCOc1ccc(NCC2CC/C(=C\C=C\c3ccccc3)C2=O)cc1 (stereo not drawn)	> 93.3 µM	> 86.2 µM	47.8 µM	30.3 µM	12.3 µM	39.3 µM	53.4 µM	49.8 µM	> 100 µM	66.2 µM	–	–	–
CC(=O)OCC(=O)O[C@@H]1[C@H]2[C@@H](OC(=O)c3ccccc3)[C@@H](C)C[C@]2(O)[C@H](OC(C)=O)[C@@]2(C)C[C@]1(OC(C)=O)C[C@H]1C(=O)C(C)(C)[C@@H](OC(C)=O)[C@@H]12	> 25 µM	> 25 µM	> 25 µM	> 25 µM	> 25 µM	> 25 µM	> 15.7 µM	> 25 µM	> 25 µM	> 6.83 µM	–	–	–
O=C(Sc1c(-c2ccccc2)c(=O)n(-c2ccccc2)c(=S)n1-c1ccccc1)c1ccco1	> 100 µM	> 100 µM	59.2 µM	> 100 µM	> 100 µM	> 100 µM	> 100 µM	> 100 µM	> 100 µM	> 100 µM	–	–	–
O=C1c2cccnc2S(=O)(=O)N1c1ccc([N+](=O)[O-])cc1	> 100 µM	> 100 µM	> 100 µM	> 100 µM	> 100 µM	> 100 µM	> 100 µM	> 100 µM	> 100 µM	> 100 µM	–	–	–
C[N+]1(CCN=C=NC2CCCCC2)CCOCC1	> 100 µM	> 100 µM	> 100 µM	> 100 µM	> 100 µM	> 100 µM	> 100 µM	> 100 µM	> 100 µM	> 100 µM	–	–	–
CCCCCCCCCCCCNC(=O)CCC(NC(=O)c1ccc(N(C)Cc2cnc3nc(N)nc(N)c3n2)cc1)C(=O)NCCCCCCCCCCCC (stereo not drawn)	> 100 µM	> 100 µM	87.1 µM	> 100 µM	> 100 µM	> 100 µM	> 100 µM	> 100 µM	> 100 µM	> 100 µM	–	–	–
O=C(OC12CC3CC(CC(C3)C1)C2)c1ccc(NCc2cc(O)ccc2O)cc1	16.7 µM	3.37 µM	0.627 µM	9.73 µM	8.54 µM	3.8 µM	4.59 µM	3.37 µM	3.57 µM	2.06 µM	–	–	–
O=C(O)C1=NN(c2ccc(S(=O)(=O)O)cc2)C2(C1)C(Cl)C(=O)N2c1nc2ccccc2s1 (stereo not drawn)	55.9 µM	34.3 µM	34.4 µM	34.9 µM	29.9 µM	30.2 µM	32.8 µM	31.2 µM	32 µM	22.9 µM	–	–	–
Cc1cc(OCc2nnc3sc(NC(=O)c4ccccc4)nn23)ccc1Cl	58.4 µM	89.7 µM	> 100 µM	> 100 µM	> 100 µM	82.2 µM	> 100 µM	> 100 µM	80.5 µM	35.2 µM	–	–	–
CCC(=O)Nc1ccc(NS(=O)(=O)c2ccc(Cl)cc2)cc1	> 100 µM	> 100 µM	> 100 µM	> 100 µM	> 100 µM	> 100 µM	> 100 µM	> 100 µM	> 100 µM	> 100 µM	–	–	–
C=C1C[C@@H]2CC[C@@]34C[C@H]5O[C@H]6[C@@H](O3)[C@H]3O[C@H](CC[C@@H]3O[C@H]6[C@H]5O4)CC(=O)C[C@@H]3[C@@H](OC)[C@@H](C[C@H](O)CN)O[C@H]3C[C@H]3O[C@@H](CC[C@@H]1O2)C[C@@H](C)C3=C	0.0241 µM	0.273 µM	0.00466 µM	0.0133 µM	> 1 µM	0.173 µM	> 1 µM	> 0.12 µM	> 0.167 µM	> 1 µM	–	0.000307 µM	0.00251 µM
N#Cc1nc(C2CCC(=O)O2)oc1N (stereo not drawn)	> 100 µM	> 100 µM	> 100 µM	> 100 µM	> 100 µM	> 100 µM	> 100 µM	> 100 µM	> 100 µM	> 100 µM	–	–	–
CN(C)CCNc1c([N+](=O)[O-])sc2ccc(Cl)cc12	> 100 µM	> 100 µM	> 100 µM	> 100 µM	> 100 µM	> 100 µM	> 100 µM	> 100 µM	> 100 µM	> 100 µM	–	–	–
CC1(C)OC[C@@H](C[C@H](O)COCc2ccccc2)O1	> 100 µM	> 100 µM	> 100 µM	> 100 µM	> 100 µM	> 100 µM	> 100 µM	> 100 µM	> 100 µM	> 100 µM	–	–	–
O=C1CS/C(=N/N=C/c2cn(Cc3ccc(Cl)cc3Cl)c3ccccc23)N1	> 100 µM	48.5 µM	> 100 µM	> 100 µM	61.6 µM	> 100 µM	> 100 µM	76.8 µM	74.7 µM	> 100 µM	–	–	–
COc1cc2c3c(cc(Cl)nc3c1OC)C(=O)C(=O)N2	30.8 µM	11.9 µM	3.56 µM	41.4 µM	4.58 µM	34.1 µM	32.2 µM	27.6 µM	27.6 µM	26.7 µM	–	–	–
